Data published in patent US7314888B1, “Compounds and medicinal use thereof” (Toyama Chemical Co., Ltd., priority 1998, dated 2008).
Read-outs that look alike come from different tables or passages of the source. Bridge positions count the residues as written; N and C are the ends. Peptide text beside a SMILES is read from it.

Tests used:
[1] = tested on: transcription factor AP-1 (nuclear extract protein prepared from HeLa cells); assay: Activities on AP-1 binding reaction to recognition sequence (ELISA) using nuclear extract protein; settings: 100 μM; ELISA using nucleus-extracted protein
Protocol: (§1) Activities on AP-1 Binding Reaction to Recognition Sequence (ELISA)
Nuclear extract protein containing transcription factor AP-1 prepared from HeLa cells was coated on 96-well ELISA plate (100 ng/well) in Hepes buffer (20 mM Hepes-potassium hydroxide (pH 7.9), 0,5 mM ethylenediamine-tetraacetic acid, 50 mM potassium chloride, 10% glycerol). After washing, a blocking treatment was carried out with bovine serum albumin, and then used for a binding assay using nuclear extract protein.
(§2) On the basis of the above-mentioned two coated AP-1, a digoxigenin-labeled double stranded oligonucleotide (22-mer) containing an AP-1 binding sequence ([…]) which has been synthesized elsewhere was reacted in the presence and absence of a sample at room temperature for 30-60 minutes in a binding reaction solution [Hepes buffer or 25 mM tris-hydrochloric acid (pH 7.9), 0.5 mM ethylenediaminetetraacetic acid, 0.05% Nonidet P-40, 10% glycerol]. After of the reaction, unbound labeled oligonucleotide washed out with Hepes buffer solution containing 0.05% of Tween-20. Then, an anti-digoxigenin antibody labeled with peroxidase was added, and reacted with the labeled oligonucleotide bound to AP-1. After washing out the excessive antibody with Hepes buffer containing 0.05% of Tween-20, the residue was reacted for a predetermined period of time in a 100 mM citrate buffer (pH 5.0) containing hydrogen peroxide by using o-phenylenediamine as a substrate. After adding-sulfuric acid solution to each well, absorbance (492 nm) was measured. Taking the absorbance in the absence of sample as 100%, inhibition rate of sample was calculated from the absorbance in the presence of sample.

[2] = target: T1, AP-1 complex (Fos/Jun peptide) (Homo sapiens, UniProt P01100+P05412); assay: Activities on AP-1 binding reaction to recognition sequence (ELISA) using Fos/Jun peptide; settings: read-out: Inhibition rate %
T1 construct: made in house; host or cells: chemical peptide synthesis (no expression host)
T1 sequence (P01100 137-200 limits assumed): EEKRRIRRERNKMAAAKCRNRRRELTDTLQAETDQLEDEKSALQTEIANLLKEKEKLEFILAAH
T1 sequence (P05412 252-315 limits assumed): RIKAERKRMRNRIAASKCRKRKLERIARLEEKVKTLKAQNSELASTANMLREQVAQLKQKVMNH
Protocol: as §1
On the other hand, Jun peptide and N-terminal biotinylated tetraglycine Fos peptide containing a DNA-binding site [Nature, Vol. 373, Pages 257-261, 1995] were synthesized and separately dissolved in tris buffer (20 mM tris-hydrochloride (pH 7.5), 50 mM potassium chloride, 1 mM ethylenediaminetetraacetic acid, 10 mM magnesium chloride, 1 mM dithiothreitol, 0.5M guanidine hydrochloride, 30% glycerol). Equimolar quantities of both the solutions were mixed together, and the mixture was used as an AP-1 complex (Fos/Jun peptide). The AP-1 complex was added to avidin-coating 96-well ELISA plate (10 pmol/well), washed, and then blocked with bovine serum albumin. The product was used for binding assay using AP-1 complex.
as §2

[3] = tested on: type II collagen-induced arthritis; assay: Type II collagen-induced arthritis in mice; type: in vivo; settings: for inhibition at 100 mg/kg: Mus musculus, po, 100 mg/kg orally, 37th day
Protocol: Type II Collagen-Induced Arthritis in Mice The effect of the compound of Example 12 on the type II collagen-induced arthritis in mice was examined. As the animals, 8 weeks old male DBA/1J mice (Charles River Japan) were used. To 2 mg/mL solution of bovine type II collagen in 0.1 mol/L acetic acid (Kouken) was added an equivalent quantity of Freund complete adjuvant (Nacalai Tesque), and prepared an emulsion. 0.2 ml of the emulsion was subcutaneously injected into the tail root portion. On the 22nd day as counted from the day of first inoculation, the same treatment as above was repeated to induce arthritis. The compound was suspended in 0.5% methyl cellulose solution and administered orally at 100 mg/kg once every day from the 22nd day to the 36th day. To the control group (negative control group), a 0.5% methyl cellulose solution was administered similarly. Severity of the arthritis was evaluated in the following manner: score 0: no change score 1: swelling on one or two toes or slight swelling in the foreleg root or hindleg root only; score 2: swelling and rubor in more joints; score 3: extensive swelling over whole foreleg or hindleg; and total of the four legs was calculated. Taking the maximum score as 12, the arthritis score was calculated to evaluate the severity of arthritis. Regarding the destruction of joints and bones, X ray photographs of four paws were taken on the 37th day, and severity of destruction in the second to fifth articulationes interphalangeae, first to fifth articulationes metacarpophalangeae and metatarsophalangeae, and calcaneus was scored by 0 or 1 in accordance with presence or absence of destruction, and the severity of destruction in the carpus and tarsal was scored by 0 to 3. Total score for the four paws was taken as joint and bone destruction score, taking 50 points as maximum score.

| Compound | Inhibition rate [1] | inhibition at 200 µM [2] | inhibition at 500 µM [2] | other results |
| --- | --- | --- | --- | --- |
| Ac-Asn-Cys^2-Gly-Asn-Leu-Leu-Ala-Leu-Gly-Ser-Cys^11-NH2 (Cys^2-Cys^11) (GNLLALGSC; not fully specified; Ac-Asn-Cys N-term, C-amide, disulfide; printed: Gly-Asn-Leu-Leu-Ala-Leu-Gly-Ser-Cys) [3(7)] | 74% |  |  |  |
| CC(=O)NC1CSSCC(C(N)=O)NC(=O)CNC(=O)C(CC(=O)O)NC(=O)C(C)NC(=O)C(CC(C)C)NC(=O)C(CO)NC(=O)C(CC(C)C)NC(=O)C(CCC(N)=O)NC(=O)CNC1=O (stereo not drawn) [3(5), Ac-Cys^1-Gly-Gln-Leu-Ser-Leu-Ala-Asp-Gly-Cys^10-NH2 (Cys^1-Cys^10)] (Ac-CGQLSLADGC-NH2; disulfide 1-10; configuration not given here) | 43% |  |  |  |
| CC(=O)NC1CSSCC(C(N)=O)NC(=O)CNC(=O)C(CC(C)C)NC(=O)C(C)NC(=O)C(CC(C)C)NC(=O)C(CO)NC(=O)C(CC(C)C)NC(=O)C(CCC(N)=O)NC(=O)CNC1=O (stereo not drawn) [3 (2)] (Ac-CGQLSLALGC-NH2; disulfide 1-10; configuration not given here) | 94% |  |  |  |
| CC(=O)NC1CSSCC(C(N)=O)NC(=O)C(CC(=O)O)NC(=O)CNC(=O)C(CC(C)C)NC(=O)C(C)NC(=O)C(CC(C)C)NC(=O)C(CC(C)C)NC(=O)C(CC(N)=O)NC(=O)CNC1=O (stereo not drawn) [3 (10)] (Ac-CGNLLALGDC-NH2; disulfide 1-10; configuration not given here) | 76% |  |  |  |
| CC(=O)NC1CSSCC(C(N)=O)NC(=O)CNC(=O)CNC(=O)C(C)NC(=O)C(CC(C)C)NC(=O)C(CC(=O)O)NC(=O)C(CC(C)C)NC(=O)C(CCC(N)=O)NC(=O)CNC1=O (stereo not drawn) [3(3), Ac-Cys^1-Gly-Gln-Leu-Asp-Leu-Ala-Gly-Gly-Cys^10-NH2 (Cys^1-Cys^10)] (Ac-CGQLDLAGGC-NH2; disulfide 1-10; configuration not given here) | 43% |  |  |  |
| Ac-Cys^1-Gly-Gln-Leu-Asp-Leu-Ala-Asp-Gly-Cys^10-NH2 (Cys^1-Cys^10) (GQLDLADGC; not fully specified; N-acetyl Cys, C-amide, Cys1-Cys10 disulfide; printed: Gly-Gln-Leu-Asp-Leu-Ala-Asp-Gly-Cys) [Example 2] | 81% |  |  |  |
| CC(=O)NC1CSSCC(C(N)=O)NC(=O)CNC(=O)C(CC(=O)O)NC(=O)C(C)NC(=O)C(CC(C)C)NC(=O)C(CC(=O)O)NC(=O)C(CC(C)C)NC(=O)C(CC(N)=O)NC(=O)CNC1=O (stereo not drawn) [3 (6)] (Ac-CGNLDLADGC-NH2; disulfide 1-10; configuration not given here) | 42% |  |  |  |
| CC(C)COc1cc(OCC(C)C)cc(C(=O)c2ccc(OCC(C)C)c(CCC(=O)O)c2)c1 [Example 41, 3-[5-(3,5-diisobutoxybenzoyl)-2-isobutoxyphenyl]propanoic acid] |  | 27% | 78% |  |
| CC(C)COc1ccc(C(=O)c2ccc(OCC(C)C)c(/C=C/C(=O)O)c2)c(OCC(C)C)c1 [Example 13, 3-[5-(2,4-diisobutoxybenzoyl)-2-isobutoxyphenyl]-2-propenoic acid] |  | 43% | 96% |  |
| CC(C)CC=C1CCC2(CC1)SC[C@H](C(=O)O)N2C(=O)CCC(C)C (stereo partly drawn) [Example 4, (3S)-8-(3-methylbutylidene)-4-(4-methylpentanoyl)-1-thia-4-azaspiro[4.5]-decane-3-carboxylic acid] |  | 8% | 15% |  |
| CC(C)CCOc1ccc(C(=O)c2ccc3c(c2)n(CCC(C)C)c(=O)n3CCC(C)C)cc1CC(=O)O [Example 90, 2-[5-[(1,3-diisopentyl-2-oxo-2,3-dihydro-1H-benzimidazol-5-yl)carbonyl]-2-(isopentyloxy)phenyl]-acetic acid] |  | 26% | 96% |  |
| CC(C)COc1ccc(C(=O)c2ccc(OCC(C)C)c(CC(=O)O)c2)c(OCC(C)C)c1 [Example 7, 2-[5-(2,4-diisobutoxybenzoyl)-2-isobutoxyphenyl]acetic acid] |  | 14% | 46% |  |
| CC(C)COc1ccc(C(=O)c2ccc(OCC(C)C)c(CCC(=O)O)c2)c(OCC(C)C)c1 [Example 12, 3-[5-(2,4-diisobutoxybenzoyl)-2-isobutoxyphenyl]propionic acid] |  | 24% | 90% | arthritis score ([3]; DBA/1J mice, 100 mg/kg orally once every day from 22nd to 36th day, 37th day from first inoculation, maximum score 12): 3; joint and bone destruction score ([3]; DBA/1J mice, 100 mg/kg orally once every day from 22nd to 36th day, X ray on 37th day, maximum score 50): 10; inhibition at 100 mg/kg ([3]; read-out: inhibition rate as compared with control group (arthritis score)): 63%; inhibition at 100 mg/kg ([3]; read-out: inhibition rate as compared with control group (joint and bone destruction score)): 62% |
| CC(=O)NC1CSSCC(C(N)=O)NC(=O)CNC(=O)C(CC(N)=O)NC(=O)C(C)NC(=O)C(CC(C)C)NC(=O)C(CC(=O)O)NC(=O)C(CC(C)C)NC(=O)C(CCC(N)=O)NC(=O)CNC1=O (stereo not drawn) [3 (4)] (Ac-CGQLDLANGC-NH2; disulfide 1-10; configuration not given here) | 64% |  |  |  |
